From ChEMBL document CHEMBL3885861, “Open TG-GATES”

Organism: Rattus norvegicus
Assay: Open TG-GATES - Regimen: Single
Type: toxicity, organism-based, Sprague-Dawley
Parameters: regimen Single, gender Male, age 6 weeks
Settings: in vivo, po, 500 mg/kg, route gavage, dose level High; for APTT / Bas / Eos / Fbg / Hb / Ht / Lym / MCH / MCHC / MCV / Mono / Neu / PT / Plat / RBC / Ret / WBC: tissue Blood; for KIDNEY_L / KIDNEY_R / KIDNEY_TOTAL: tissue Kidney; for LIVER: tissue Liver; for A/G / ALP / ALT / AST / BUN / CRE / Ca / Cl / DBIL / GLC / IP / K / LDH / Na / PL / RALB / TBIL / TC / TG / TP / gamma-GTP: tissue Plasma

Work on `CN1C(=O)OC(C)(C)C1=O` [TRIMETHADIONE] yielded a TERMINAL_BW (3 h) of 212 g, an APTT (3 h) of 16.8 s and a Bas (3 h) of 0%. The Eos (3 h) was 0.8%, the Fbg (3 h) was 267.8 mg/dL and the Hb (3 h) was 12.7 g/dL. The Ht (3 h) was 38.3%, the Lym (3 h) was 79.2% and the MCH (3 h) was 21.5 pg. It also gave an MCHC (3 h) of 33.2%, an MCV (3 h) of 64.8 fL and a Mono (3 h) of 2.4%. For the same molecule, the Neu (3 h) was 17%, the PT (3 h) was 14 s and the Plat (3 h) was 113.4 x10_4/uL. The RBC (3 h) was 591.4 x10_4/ul, the Ret (3 h) was 8.8% and the WBC (3 h) was 80.3 x10_2/uL. It also gave a KIDNEY_L (3 h) of 1 g, a KIDNEY_R (3 h) of 0.9 g and a KIDNEY_TOTAL (3 h) of 1.9 g. For the same molecule, the LIVER (3 h) was 9.1 g, the A/G (3 h) was 0.9 and the ALP (3 h) was 1375.2 IU/L. It also gave an ALT (3 h) of 39.6 IU/L, an AST (3 h) of 70.6 IU/L and a BUN (3 h) of 8.6 mg/dL. It also gave a CRE (3 h) of 0.2 mg/dL, a Ca (3 h) of 10.5 mg/dL and a Cl (3 h) of 107.2 meq/L. It also gave a DBIL (3 h) of 0.002 mg/dL, a GLC (3 h) of 174.2 mg/dL and an IP (3 h) of 8.8 mg/dL. For the same molecule, the K (3 h) was 4.2 meq/L, the LDH (3 h) was 108 IU/L and the Na (3 h) was 139.4 meq/L. For the same molecule, the PL (3 h) was 150.4 mg/dL, the RALB (3 h) was 2.4 g/dL and the TBIL (3 h) was 0.058 mg/dL. The TC (3 h) was 84.2 mg/dL, the TG (3 h) was 60.6 mg/dL and the TP (3 h) was 5.2 g/dL. For the same molecule, the gamma-GTP (3 h) was 1 IU/L, the TERMINAL_BW (6 h) was 209.4 g and the APTT (6 h) was 16.1 s. The Bas (6 h) was 0.2%, the Eos (6 h) was 1.2% and the Fbg (6 h) was 280.2 mg/dL. The Hb (6 h) was 12.9 g/dL, the Ht (6 h) was 38.9% and the Lym (6 h) was 79.6%. The MCH (6 h) was 21.1 pg, the MCHC (6 h) was 33.1% and the MCV (6 h) was 63.7 fL. For the same molecule, the Mono (6 h) was 1.6%, the Neu (6 h) was 17% and the PT (6 h) was 14.1 s. It also gave a Plat (6 h) of 121.7 x10_4/uL, an RBC (6 h) of 611.6 x10_4/ul and a Ret (6 h) of 8.2%. The WBC (6 h) was 94.3 x10_2/uL, the KIDNEY_L (6 h) was 1 g and the KIDNEY_R (6 h) was 0.9 g. The KIDNEY_TOTAL (6 h) was 1.9 g, the LIVER (6 h) was 8.5 g and the A/G (6 h) was 0.9. The ALP (6 h) was 1302 IU/L, the ALT (6 h) was 31 IU/L and the AST (6 h) was 66.8 IU/L. It also gave a BUN (6 h) of 8.2 mg/dL, a CRE (6 h) of 0.2 mg/dL and a Ca (6 h) of 10.6 mg/dL. For the same molecule, the Cl (6 h) was 107.2 meq/L, the DBIL (6 h) was 0 mg/dL and the GLC (6 h) was 173.2 mg/dL. For the same molecule, the IP (6 h) was 9.4 mg/dL, the K (6 h) was 4.1 meq/L and the LDH (6 h) was 72 IU/L. For the same molecule, the Na (6 h) was 141 meq/L, the PL (6 h) was 139.2 mg/dL and the RALB (6 h) was 2.4 g/dL. The TBIL (6 h) was 0.058 mg/dL, the TC (6 h) was 80.2 mg/dL and the TG (6 h) was 35.8 mg/dL. The TP (6 h) was 5.2 g/dL, the gamma-GTP (6 h) was 1.4 IU/L and the TERMINAL_BW (9 h) was 209 g. The APTT (9 h) was 15.6 s, the Bas (9 h) was 0% and the Eos (9 h) was 0.8%. The Fbg (9 h) was 253.2 mg/dL, the Hb (9 h) was 12.6 g/dL and the Ht (9 h) was 37.9%. For the same molecule, the Lym (9 h) was 75.2%, the MCH (9 h) was 21.4 pg and the MCHC (9 h) was 33.4%. The MCV (9 h) was 64.3 fL, the Mono (9 h) was 1.8% and the Neu (9 h) was 21.8%. For the same molecule, the PT (9 h) was 14.5 s, the Plat (9 h) was 117.7 x10_4/uL and the RBC (9 h) was 589.4 x10_4/ul. For the same molecule, the Ret (9 h) was 8%, the WBC (9 h) was 81.5 x10_2/uL and the KIDNEY_L (9 h) was 1 g. For the same molecule, the KIDNEY_R (9 h) was 1 g, the KIDNEY_TOTAL (9 h) was 2 g and the LIVER (9 h) was 8.2 g. For the same molecule, the A/G (9 h) was 0.9, the ALP (9 h) was 1539.2 IU/L and the ALT (9 h) was 29 IU/L. It also gave an AST (9 h) of 65.4 IU/L, a BUN (9 h) of 7.6 mg/dL and a CRE (9 h) of 0.2 mg/dL. It also gave a Ca (9 h) of 10.2 mg/dL, a Cl (9 h) of 105.8 meq/L and a DBIL (9 h) of 0 mg/dL. It also gave a GLC (9 h) of 158.4 mg/dL, an IP (9 h) of 10.3 mg/dL and a K (9 h) of 3.8 meq/L. It also gave an LDH (9 h) of 69.4 IU/L, a Na (9 h) of 140.6 meq/L and a PL (9 h) of 127.8 mg/dL. It also gave an RALB (9 h) of 2.4 g/dL, a TBIL (9 h) of 0.056 mg/dL and a TC (9 h) of 67.4 mg/dL. It also gave a TG (9 h) of 28.2 mg/dL, a TP (9 h) of 5.1 g/dL and a gamma-GTP (9 h) of 1.2 IU/L. For the same molecule, the TERMINAL_BW (24 h) was 215.3 g, the APTT (24 h) was 17.7 s and the Bas (24 h) was 0%. For the same molecule, the Eos (24 h) was 0.8%, the Fbg (24 h) was 286.8 mg/dL and the Hb (24 h) was 13.6 g/dL. For the same molecule, the Ht (24 h) was 40.5%, the Lym (24 h) was 78% and the MCH (24 h) was 21.1 pg. For the same molecule, the MCHC (24 h) was 33.6%, the MCV (24 h) was 62.7 fL and the Mono (24 h) was 2.6%. The Neu (24 h) was 18.4%, the PT (24 h) was 13.8 s and the Plat (24 h) was 129.1 x10_4/uL. For the same molecule, the RBC (24 h) was 646.2 x10_4/ul, the Ret (24 h) was 6.9% and the WBC (24 h) was 101.5 x10_2/uL. For the same molecule, the KIDNEY_L (24 h) was 0.9 g, the KIDNEY_R (24 h) was 1 g and the KIDNEY_TOTAL (24 h) was 1.9 g. For the same molecule, the LIVER (24 h) was 9.7 g, the A/G (24 h) was 0.9 and the ALP (24 h) was 1799.8 IU/L. For the same molecule, the ALT (24 h) was 49.4 IU/L, the AST (24 h) was 82.2 IU/L and the BUN (24 h) was 13 mg/dL. The CRE (24 h) was 0.2 mg/dL, the Ca (24 h) was 10.6 mg/dL and the Cl (24 h) was 101.6 meq/L. It also gave a DBIL (24 h) of 0.006 mg/dL, a GLC (24 h) of 165.2 mg/dL and an IP (24 h) of 7.4 mg/dL. The K (24 h) was 3.9 meq/L, the LDH (24 h) was 96.8 IU/L and the Na (24 h) was 144 meq/L. For the same molecule, the PL (24 h) was 137.2 mg/dL, the RALB (24 h) was 2.6 g/dL and the TBIL (24 h) was 0.046 mg/dL. The TC (24 h) was 75.6 mg/dL, the TG (24 h) was 99.4 mg/dL and the TP (24 h) was 5.6 g/dL. The gamma-GTP (24 h) was 1 IU/L.
